Data as given in patent publication US20060122228A1, “Methods and compositions using immunomodulatory compounds for treatment and management of central nervous system injury” (priority 2004, published 2006).
Where “and” joins values, the source holds several entries; their conditions need not be identical. Equal entries are not always repeated. Where two headings read alike, the source gives them in different places.

Experiments:
TNF-α production [1] = conditions: LPS-stimulated human whole blood, cited from earlier work; for IC50: read-out: IC50 for inhibiting production of TNF-α
TNF-α production [2] = experiment: Inhibition of TNF-α production following LPS-stimulation of human PBMC; assay type: cell-based
IL-1β production = experiment: LPS-stimulated production of IL-1β by PBMC; assay type: cell-based
IFN-γ production = experiment: Augmentation of IFN-γ production following TCR activation of T-cells; assay type: cell-based
IL-10 production = experiment: LPS-stimulated production of IL-10 by PBMC; assay type: cell-based
IL-6 production = experiment: LPS-stimulated production of IL-6 by PBMC; assay type: cell-based
TNF-α production [3] = conditions: LPS-stimulated PBMC, cited from earlier work; for IC50: read-out: IC50 for inhibiting production of TNF-α
IL-2 production = experiment: Augmentation of IL-2 production following TCR activation of PBMC; assay type: cell-based
T-cells = experiment: Stimulation of T-cell proliferation following primary induction by T-cell receptor (TCR) activation; assay type: cell-based
MM.IS cells = experiment: Inhibition of proliferation of MM.IS cells; assay type: cell-based; conditions: read-out: concentration achieving 50% inhibition of proliferation
Hs Sultan cells = experiment: Inhibition of proliferation of Hs Sultan cells; assay type: cell-based; conditions: read-out: concentration achieving 50% inhibition of proliferation
[4] = cited from earlier work

Row | SMILES | IC50 for inhibiting production of TNF-α (TNF-α production [1]) [mg/L] | IC50 (TNF-α production [1]) [µM] | IC50 for inhibiting production of TNF-α (TNF-α production [3]) [mg/L] | IC50 (TNF-α production [3]) [µM] | stability / interconversion in aqueous solvent systems [4] | other results
1 | Nc1cccc2c1CN(C1CCC(=O)NC1=O)C2=O (stereo not shown) [3-(4-amino-1-oxo-1,3-dihydro-isoindol-2-yl)-piperidine-2,6-dione] | ~0.1036 | ~0.48 | ~0.0259 | ~0.1 |  | effect on LPS-stimulated production of TNF-α (TNF-α production [2]): dose-dependent inhibition; effect on LPS-stimulated production of IL-1β (IL-1β production): dose-dependent inhibition; potency relative to thalidomide in augmenting the production of IFN-γ (IFN-γ production): 50-100 times; effect on production of the anti-inflammatory cytokine IL-10 (IL-10 production): increased production; effect on LPS-stimulated production of IL-6 (IL-6 production): dose-dependent inhibition; potency relative to thalidomide in augmenting the production of IL-2 (IL-2 production): 50-100 times; potency relative to thalidomide in stimulating the proliferation of T-cells (T-cells): 50-100 times
2 | Nc1cccc2c1C(=O)N(C1CCC(=O)NC1=O)C2=O (stereo not shown) [4-(amino)-2-(2,6-dioxo(3-piperidyl))-isoindoline-1,3-dione] | ~0.00683 | ~0.025 | ~0.00655 | ~0.024 |  | IC50 (MM.IS cells): 0.00273 µg/mL to 0.0273 µg/mL and 10 nM to 100 nM; IC50 (Hs Sultan cells): 0.00273 µg/mL to 0.0273 µg/mL and 10 nM to 100 nM
3 | Nc1cccc2c1CN(C1CCC(=O)NC1=O)C2=O (stereo not shown) [Form A, 3-(4-amino-1-oxo-1,3 dihydro-isoindol-2-yl)-piperidene-2,6-dione] |  |  |  |  |  | thermodynamic stability among polymorphs ([4]; anhydrous polymorphs): most thermodynamically stable anhydrous polymorph
4 | Nc1cccc2c1CN(C1CCC(=O)NC1=O)C2=O (stereo not shown) [Form B, 3-(4-amino-1-oxo-1,3 dihydro-isoindol-2-yl)-piperidene-2,6-dione] |  |  |  |  | converts to Form E | 
5 | Nc1cccc2c1CN(C1CCC(=O)NC1=O)C2=O (stereo not shown) [Form E, 3-(4-amino-1-oxo-1,3 dihydro-isoindol-2-yl)-piperidene-2,6-dione] |  |  |  |  | most stable form | 
6 | O=C1CCC(N2C(=O)c3ccccc3C2=O)C(=O)N1 (stereo not shown) [Thalidomide, thalidomide, reference compound] |  |  | ~50.2 | ~194 |  | 
